Assay results reported in US8309552B2, “Immunomodulating heterocyclic compounds” (Medigene AG, priority 2003, dated 2012).

These molecules were tested against T1, CD80-CD28 interaction (Homo sapiens, UniProt P33681) (assay: Homogenous Time Resolved Fluorescence (HTRF) assay, cell free). Settings: cell free HTRF assay; concentration series 100 μM-1.7 nM; 4 hours at room temperature; read-out: Activity (EC50 in the HTRF assay).
T1 sequence (P33681 35-242 limits assumed): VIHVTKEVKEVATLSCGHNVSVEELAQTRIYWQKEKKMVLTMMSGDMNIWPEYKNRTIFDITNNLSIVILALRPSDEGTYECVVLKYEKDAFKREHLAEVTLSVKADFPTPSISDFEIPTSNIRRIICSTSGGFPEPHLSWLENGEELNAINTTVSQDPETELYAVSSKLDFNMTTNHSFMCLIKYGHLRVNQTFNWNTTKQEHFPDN
Type: binding
In short: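 Europium and APC labels were linked through antibodies to CD28 and CD80 fusion proteins. Compounds were tested at 100 μM-1.7 nM for 4 h at room temperature in 50 mM Tris-HCl, 150 mM NaCl pH7.8, 0.1% BSA. Emission read at 665 and 615 nm (excitation 340 nm); non-specific signal measured with C215 Fab in place of CD80; EC50 reported in bands.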

First: CCC(COCc1ccccc1)NC(=O)c1ccc(-n2[nH]c3c(nnc4ccccc43)c2=O)cc1 (stereo not shown) [Example 276]
Second: O=C(NCCNCc1ccccc1)c1ccc(-n2[nH]c3c(nnc4ccccc43)c2=O)cc1 [Example 281]
The EC50 of the first is higher: 1 to 10 µM for the first, < 1 µM for the second.

O=C(NC1CCOC1=O)c1ccc(-n2[nH]c3c(nnc4ccccc43)c2=O)cc1 (stereo not shown) [Example 277] and CC1CCCCC1NC(=O)c1ccc(-n2[nH]c3c(nnc4ccccc43)c2=O)cc1 (stereo not shown) [Example 316] fall in the same range of EC50: 1 to 10 µM for the first, 1 to 10 µM for the second.

First: O=C(NC1CN2CCC1CC2)c1ccc(-n2[nH]c3c(nnc4ccccc43)c2=O)cc1 (stereo not shown) [Example 278]
Second: CC1CCCC(NC(=O)c2ccc(-n3[nH]c4c(nnc5ccccc54)c3=O)cc2)C1C (stereo not shown) [Example 317]
The EC50 of the first is lower: < 1 µM for the first, 1 to 10 µM for the second. The first is the more potent here.

CCCCNCCNC(=O)c1ccc(-n2[nH]c3c(nnc4ccccc43)c2=O)cc1 [Example 279] and CCN(CC)CCNCCNC(=O)c1ccc(-n2[nH]c3c(nnc4ccccc43)c2=O)cc1 [Example 280] cannot be ordered by EC50: < 1 µM for the first, < 1 µM for the second.

First: CCNC(=O)Nc1ccc(-n2[nH]c3c(nnc4ccccc43)c2=O)cc1 [Example 282]
Second: CCC(C)CNC(=O)Nc1ccc(-n2[nH]c3c(nnc4ccccc43)c2=O)cc1 (stereo not shown) [Example 308]
The EC50 of the first is lower: < 1 µM for the first, 1 to 10 µM for the second.

First: CC(C)=CCC/C(C)=C/CNC(=O)Nc1ccc(-n2[nH]c3c(nnc4ccccc43)c2=O)cc1 [Example 283]
Second: CCC(C)NC(=O)Nc1ccc(-n2[nH]c3c(nnc4ccccc43)c2=O)cc1 (stereo not shown) [Example 309]
The EC50 of the first is higher: > 10 µM for the first, 1 to 10 µM for the second. The second is the more potent here.

O=C(NCc1cccc(F)c1)Nc1ccc(-n2[nH]c3c(nnc4ccccc43)c2=O)cc1 [Example 284] and O=C(NCc1ccc2c(c1)OCO2)Nc1ccc(-n2[nH]c3c(nnc4ccccc43)c2=O)cc1 [Example 286] cannot be ordered by EC50: > 10 µM for the first, > 10 µM for the second.

First: O=C(NCCc1cnc[nH]1)Nc1ccc(-n2[nH]c3c(nnc4ccccc43)c2=O)cc1 [Example 285]
Second: O=C(NCCc1cccs1)Nc1ccc(-n2[nH]c3c(nnc4ccccc43)c2=O)cc1 [Example 289]
The EC50 of the first is lower: < 1 µM for the first, 1 to 10 µM for the second. The first is the more potent here.

Compared with O=C(NCCN1CCNC1=O)Nc1ccc(-n2[nH]c3c(nnc4ccccc43)c2=O)cc1 [Example 287], O=C(NCCCN1CCCC1=O)Nc1ccc(-n2[nH]c3c(nnc4ccccc43)c2=O)cc1 [Example 297] is higher in EC50: < 1 µM for the first, 1 to 10 µM for the second.

O=C(NCC1CCNCC1)Nc1ccc(-n2[nH]c3c(nnc4ccccc43)c2=O)cc1 [Example 290] and O=C(NCCN1CCNCC1)Nc1ccc(-n2[nH]c3c(nnc4ccccc43)c2=O)cc1 [Example 300] cannot be ordered by EC50: < 1 µM for the first, < 1 µM for the second.

O=C(NCCCc1ccccc1)Nc1ccc(-n2[nH]c3c(nnc4ccccc43)c2=O)cc1 [Example 291] and CC(CCc1ccccc1)NC(=O)Nc1ccc(-n2[nH]c3c(nnc4ccccc43)c2=O)cc1 (stereo not shown) [Example 304] cannot be ordered by EC50: > 10 µM for the first, > 10 µM for the second.

O=C(Nc1ccc(-n2[nH]c3c(nnc4ccccc43)c2=O)cc1)NC1CCCC1OCc1ccccc1 (stereo not shown) [Example 292] and O=C(Nc1ccc(-n2[nH]c3c(nnc4ccccc43)c2=O)cc1)NC1CCCCCC1 [Example 299] cannot be ordered by EC50: > 10 µM for the first, > 10 µM for the second.

O=C(Nc1ccc(-n2[nH]c3c(nnc4ccccc43)c2=O)cc1)Nc1nc2ccccc2s1 [Example 293] and O=C(NCc1ccc([N+](=O)[O-])cc1)Nc1ccc(-n2[nH]c3c(nnc4ccccc43)c2=O)cc1 [Example 296] cannot be ordered by EC50: > 10 µM for the first, > 10 µM for the second.

Compared with CC(C)(C)OC(=O)N1CCN(CCNC(=O)Nc2ccc(-n3[nH]c4c(nnc5ccccc54)c3=O)cc2)CC1 [Example 294], CCOC(=O)N1CCC(NC(=O)Nc2ccc(-n3[nH]c4c(nnc5ccccc54)c3=O)cc2)CC1 [Example 303] is higher in EC50: 1 to 10 µM for the first, > 10 µM for the second. The first is the more potent here.

Going from O=C(NCCCn1ccnc1)Nc1ccc(-n2[nH]c3c(nnc4ccccc43)c2=O)cc1 [Example 298] to O=C(NCCNc1ccc([N+](=O)[O-])cn1)Nc1ccc(-n2[nH]c3c(nnc4ccccc43)c2=O)cc1 [Example 302], the EC50 rises from < 1 µM to > 10 µM.

CC1(C)CC(NC(=O)Nc2ccc(-n3[nH]c4c(nnc5ccccc54)c3=O)cc2)CC(C)(C)N1 [Example 301] and COC(CNC(=O)Nc1ccc(-n2[nH]c3c(nnc4ccccc43)c2=O)cc1)OC [Example 306] cannot be ordered by EC50: < 1 µM for the first, < 1 µM for the second.

First: CCOC(CNC(=O)Nc1ccc(-n2[nH]c3c(nnc4ccccc43)c2=O)cc1)OCC [Example 307]
Second: CCN1CCCC1CNC(=O)Nc1ccc(-n2[nH]c3c(nnc4ccccc43)c2=O)cc1 (stereo not shown) [Example 310]
The EC50 of the first is higher: 1 to 10 µM for the first, < 1 µM for the second.

O=C(NCC(F)F)c1ccc(-n2[nH]c3c(nnc4ccccc43)c2=O)cc1 [Example 311] and O=C(NCCC(F)(F)F)c1ccc(-n2[nH]c3c(nnc4ccccc43)c2=O)cc1 [Example 312] cannot be ordered by EC50: < 1 µM for the first, < 1 µM for the second.

O=C(NC1C2CC3CC(C2)CC1C3)c1ccc(-n2[nH]c3c(nnc4ccccc43)c2=O)cc1 (stereo not shown) [Example 313] and O=C(NC1CC1c1ccccc1)c1ccc(-n2[nH]c3c(nnc4ccccc43)c2=O)cc1 (stereo not shown) [Example 315] fall in the same range of EC50: 1 to 10 µM for the first, 1 to 10 µM for the second.

C#CC1(NC(=O)c2ccc(-n3[nH]c4c(nnc5ccccc54)c3=O)cc2)CCCCC1 [Example 314] and O=C(NCCCCN1CCCCC1)c1ccc(-n2[nH]c3c(nnc4ccccc43)c2=O)cc1 [Example 339] cannot be ordered by EC50: < 1 µM for the first, < 1 µM for the second.

CC12CCC(C1)C(C)(C)C2NC(=O)c1ccc(-n2[nH]c3c(nnc4ccccc43)c2=O)cc1 (stereo not shown) [Example 318] and CC(C)(C)NC(=O)c1ccc(-n2[nH]c3c(nnc4ccccc43)c2=O)cc1 [Example 319] cannot be ordered by EC50: < 1 µM for the first, < 1 µM for the second.

First: C[Si](C)(C)CNC(=O)c1ccc(-n2[nH]c3c(nnc4ccccc43)c2=O)cc1 [Example 320]
Second: CCCC(C)NC(=O)c1ccc(-n2[nH]c3c(nnc4ccccc43)c2=O)cc1 (stereo not shown) [Example 321]
The EC50 of the first is higher: > 10 µM for the first, < 1 µM for the second.

CCCCC(C)NC(=O)c1ccc(-n2[nH]c3c(nnc4ccccc43)c2=O)cc1 (stereo not shown) [Example 322] and O=C(NCCCCN1CCOCC1)c1ccc(-n2[nH]c3c(nnc4ccccc43)c2=O)cc1 [Example 338] cannot be ordered by EC50: < 1 µM for the first, < 1 µM for the second.

O=C(NC1CCN(Cc2ccccc2)CC1)c1ccc(-n2[nH]c3c(nnc4c(F)cccc43)c2=O)cc1 [Example 323] and O=C(CN1CCC(NC(=O)c2ccc(-n3[nH]c4c(nnc5c(F)cccc54)c3=O)cc2)CC1)c1ccccc1 [Example 334] cannot be ordered by EC50: < 1 µM for the first, < 1 µM for the second.

CN(C)CCNC(=O)Nc1ccc(-n2[nH]c3c(nnc4c(F)cccc43)c2=O)cc1 [Example 324] and CCN(CC)CCNC(=O)c1ccc(-n2[nH]c3c(nnc4c(F)cccc43)c2=O)cc1 [Example 342] cannot be ordered by EC50: < 1 µM for the first, < 1 µM for the second.

O=C(NCCCCN1CCCC1)c1ccc(-n2[nH]c3c(nnc4ccc(F)cc43)c2=O)cc1 [Example 325] and O=C(NCCCN1CCCC1)c1ccc(-n2[nH]c3c(nnc4ccc(F)cc43)c2=O)cc1 [Example 331] cannot be ordered by EC50: < 1 µM for the first, < 1 µM for the second.

CCN(CC)CCNC(=O)c1ccc(-n2[nH]c3c(nnc4ccc(F)cc43)c2=O)cc1 [Example 326] and CCN(CC)CCCNC(=O)c1ccc(-n2[nH]c3c(nnc4ccc(F)cc43)c2=O)cc1 [Example 330] cannot be ordered by EC50: < 1 µM for the first, < 1 µM for the second.

CN1CCCC1CCNC(=O)c1ccc(-n2[nH]c3c(nnc4ccc(F)cc43)c2=O)cc1 (stereo not shown) [Example 327] and CN1CCCC1CCNC(=O)c1ccc(-n2[nH]c3c(nnc4c(F)cccc43)c2=O)cc1 (stereo not shown) [Example 343] cannot be ordered by EC50: < 1 µM for the first, < 1 µM for the second.

O=C(NC1CCN(Cc2ccccc2)CC1)c1ccc(-n2[nH]c3c(nnc4ccc(F)cc43)c2=O)cc1 [Example 328] and CC(c1ccccc1)N1CCC(NC(=O)c2ccc(-n3[nH]c4c(nnc5c(F)cccc54)c3=O)cc2)CC1 (stereo not shown) [Example 337] cannot be ordered by EC50: < 1 µM for the first, < 1 µM for the second.

CCCCN(CCCC)CCCNC(=O)c1ccc(-n2[nH]c3c(nnc4ccc(F)cc43)c2=O)cc1 [Example 329] and CCN(CC)CCCNC(=O)c1ccc(-n2[nH]c3c(nnc4c(F)cccc43)c2=O)cc1 [Example 346] cannot be ordered by EC50: < 1 µM for the first, < 1 µM for the second.

CC1CCCCN1CCCNC(=O)c1ccc(-n2[nH]c3c(nnc4ccc(F)cc43)c2=O)cc1 (stereo not shown) [Example 332] and O=C(NCCCN1CCCC1)c1ccc(-n2[nH]c3c(nnc4c(F)cccc43)c2=O)cc1 [Example 352] cannot be ordered by EC50: < 1 µM for the first, < 1 µM for the second.

CC=CCNC(=O)c1ccc(-n2[nH]c3c(nnc4c(F)cccc43)c2=O)cc1 [Example 333] and C=C(C)CNC(=O)c1ccc(-n2[nH]c3c(nnc4c(F)cccc43)c2=O)cc1 [Example 340] cannot be ordered by EC50: < 1 µM for the first, < 1 µM for the second.

CCOCCN1CCC(NC(=O)c2ccc(-n3[nH]c4c(nnc5c(F)cccc54)c3=O)cc2)CC1 [Example 335] and O=C(NC1CCN(CCC2CCCCC2)CC1)c1ccc(-n2[nH]c3c(nnc4c(F)cccc43)c2=O)cc1 [Example 336] cannot be ordered by EC50: < 1 µM for the first, < 1 µM for the second.

CCCNCCNC(=O)c1ccc(-n2[nH]c3c(nnc4c(F)cccc43)c2=O)cc1 [Example 341] and CCCCNCCNC(=O)c1ccc(-n2[nH]c3c(nnc4c(F)cccc43)c2=O)cc1 [Example 344] cannot be ordered by EC50: < 1 µM for the first, < 1 µM for the second.

O=C(NCCNCc1ccccc1)c1ccc(-n2[nH]c3c(nnc4c(F)cccc43)c2=O)cc1 [Example 347] and CNCCCNC(=O)c1ccc(-n2[nH]c3c(nnc4c(F)cccc43)c2=O)cc1 [Example 355] cannot be ordered by EC50: < 1 µM for the first, < 1 µM for the second.

CC(C)NCCCNC(=O)c1ccc(-n2[nH]c3c(nnc4c(F)cccc43)c2=O)cc1 [Example 348] and NCCCCNC(=O)c1ccc(-n2[nH]c3c(nnc4c(F)cccc43)c2=O)cc1 [Example 351] cannot be ordered by EC50: < 1 µM for the first, < 1 µM for the second.

With CCCCOCCCNC(=O)c1ccc(-n2[nH]c3c(nnc4c(F)cccc43)c2=O)cc1 [Example 354] the EC50 was < 1 µM.
